# Experimental data reported in paper PMC10239507, “Development of allosteric and selective CDK2 inhibitors for contraception with negative cooperativity to cyclin binding” (Nature Communications, 2023).
# What was measured:
# Assay in all cases: biochemical
# [1] = target: T1, 371 kinases (kinase named in each endpoint) (Homo sapiens, UniProt Q02779); details: MLK2/MAP3K10
# T1 construct: purchased Reaction Biology
# [2] = target: T2, 371 kinases (kinase named in each endpoint) (Homo sapiens, UniProt P21802); details: FGFR2
# T2 construct: purchased Reaction Biology
# [3] = target: T3, 371 kinases (kinase named in each endpoint) (Homo sapiens, UniProt Q00534)
# T3 construct: purchased Reaction Biology
# [4] = target: T4, 371 kinases (kinase named in each endpoint) (Homo sapiens, UniProt Q86UX6); details: STK32C/YANK3
# T4 construct: purchased Reaction Biology
# [5] = target: T5, 371 kinases (kinase named in each endpoint) (Homo sapiens, UniProt Q05655); details: PKCD
# T5 construct: purchased Reaction Biology
# [6] = target: T6, 371 kinases (kinase named in each endpoint) (Homo sapiens, UniProt Q9Y2H1); details: STK38L/NDR2
# T6 construct: purchased Reaction Biology
# [7] = target: T7, 371 kinases (kinase named in each endpoint) (Homo sapiens, UniProt Q08345); details: DDR1
# T7 construct: purchased Reaction Biology
# [8] = target: T8, 371 kinases (kinase named in each endpoint) (Homo sapiens, UniProt Q8IVH8); details: GLK/MAP4K3
# T8 construct: purchased Reaction Biology
# [9] = target: T9, 371 kinases (kinase named in each endpoint) (Homo sapiens, UniProt P35916); details: FLT4/VEGFR3
# T9 construct: purchased Reaction Biology
# [10] = target: T10, 371 kinases (kinase named in each endpoint) (Homo sapiens, UniProt Q96GX5); details: MASTL
# T10 construct: purchased Reaction Biology
# [11] = target: T11, 371 kinases (kinase named in each endpoint) (Homo sapiens, UniProt Q07002); details: CDK18/CYCLIN Y (PCTK3)
# T11 construct: purchased Reaction Biology
# [12] = target: T12, 371 kinases (kinase named in each endpoint) (Homo sapiens, UniProt P23443); details: P70S6K/RPS6KB1
# T12 construct: purchased Reaction Biology
# [13] = target: T13, 371 kinases (kinase named in each endpoint) (Homo sapiens, UniProt O43293); details: ZIPK/DAPK3
# T13 construct: purchased Reaction Biology
# [14] = target: T14, 371 kinases (kinase named in each endpoint) (Homo sapiens, UniProt P37173); details: TGFBR2
# T14 construct: purchased Reaction Biology
# [15] = target: T15, 371 kinases (kinase named in each endpoint) (Homo sapiens, UniProt Q6IQ55); details: TTBK2
# T15 construct: purchased Reaction Biology
# [16] = target: T16, 371 kinases (kinase named in each endpoint) (Homo sapiens, UniProt P17948); details: FLT1/VEGFR1
# T16 construct: purchased Reaction Biology
# [17] = target: T17, 371 kinases (kinase named in each endpoint) (Homo sapiens, UniProt P57059); details: SIK1
# T17 construct: purchased Reaction Biology
# [18] = target: T18, 371 kinases (kinase named in each endpoint) (Homo sapiens, UniProt Q13470); details: TNK1
# T18 construct: purchased Reaction Biology
# [19] = target: T19, 371 kinases (kinase named in each endpoint) (Homo sapiens, UniProt Q9UEE5); details: DRAK1/STK17A
# T19 construct: purchased Reaction Biology
# [20] = target: T20, 371 kinases (kinase named in each endpoint) (Homo sapiens, UniProt P36507); details: MEK2
# T20 construct: purchased Reaction Biology
# [21] = target: T21, 371 kinases (kinase named in each endpoint) (Homo sapiens, UniProt P31749); details: AKT1
# T21 construct: purchased Reaction Biology
# [22] = target: T22, 371 kinases (kinase named in each endpoint) (Homo sapiens, UniProt Q13555); details: CAMK2g
# T22 construct: purchased Reaction Biology
# [23] = target: T23, 371 kinases (kinase named in each endpoint) (Homo sapiens, UniProt Q9UBE8); details: NLK
# T23 construct: purchased Reaction Biology
# [24] = target: T24, 371 kinases (kinase named in each endpoint) (Homo sapiens, UniProt Q6PHR2); details: ULK3
# T24 construct: purchased Reaction Biology
# [25] = target: T25, 371 kinases (kinase named in each endpoint) (Homo sapiens, UniProt Q9H2G2); details: SLK/STK2
# T25 construct: purchased Reaction Biology
# [26] = target: T26, 371 kinases (kinase named in each endpoint) (Homo sapiens, UniProt O15264); details: P38D/MAPK13
# T26 construct: purchased Reaction Biology
# [27] = target: T27, 371 kinases (kinase named in each endpoint) (Homo sapiens, UniProt P34947); details: GRK5
# T27 construct: purchased Reaction Biology
# [28] = target: T28, 371 kinases (kinase named in each endpoint) (Homo sapiens, UniProt Q14012); details: CAMK1A
# T28 construct: purchased Reaction Biology
# [29] = target: T29, 371 kinases (kinase named in each endpoint) (Homo sapiens, UniProt P09769); details: FGR
# T29 construct: purchased Reaction Biology
# [30] = target: T30, 371 kinases (kinase named in each endpoint) (Homo sapiens, UniProt Q56UN5); details: YSK4/MAP3K19
# T30 construct: purchased Reaction Biology
# [31] = target: T31, 371 kinases (kinase named in each endpoint) (Homo sapiens, UniProt Q14289); details: PYK2
# T31 construct: purchased Reaction Biology
# [32] = target: T32, 371 kinases (kinase named in each endpoint) (Homo sapiens, UniProt P06493)
# T32 construct: purchased Reaction Biology
# [33] = target: T33, 371 kinases (kinase named in each endpoint) (Homo sapiens, UniProt P36897); details: ALK5/TGFBR1
# T33 construct: purchased Reaction Biology
# [34] = target: T34, 371 kinases (kinase named in each endpoint) (Homo sapiens, UniProt Q8N752); details: CK1A1L
# T34 construct: purchased Reaction Biology
# [35] = target: T35, 371 kinases (kinase named in each endpoint) (Homo sapiens, UniProt P30530); details: AXL
# T35 construct: purchased Reaction Biology
# [36] = target: T36, 371 kinases (kinase named in each endpoint) (Homo sapiens, UniProt P11309); details: PIM1
# T36 construct: purchased Reaction Biology
# T36 sequence (P11309 whole entry): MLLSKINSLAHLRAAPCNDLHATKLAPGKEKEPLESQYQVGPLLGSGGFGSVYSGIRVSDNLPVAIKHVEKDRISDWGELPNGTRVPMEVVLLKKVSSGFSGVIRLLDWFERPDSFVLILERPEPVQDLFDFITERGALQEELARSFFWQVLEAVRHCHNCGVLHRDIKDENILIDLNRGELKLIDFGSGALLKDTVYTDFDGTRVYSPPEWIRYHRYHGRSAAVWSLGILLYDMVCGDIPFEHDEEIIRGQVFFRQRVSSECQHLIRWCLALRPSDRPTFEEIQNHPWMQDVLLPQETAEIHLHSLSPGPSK
# T3 sequence (Q00534 whole entry): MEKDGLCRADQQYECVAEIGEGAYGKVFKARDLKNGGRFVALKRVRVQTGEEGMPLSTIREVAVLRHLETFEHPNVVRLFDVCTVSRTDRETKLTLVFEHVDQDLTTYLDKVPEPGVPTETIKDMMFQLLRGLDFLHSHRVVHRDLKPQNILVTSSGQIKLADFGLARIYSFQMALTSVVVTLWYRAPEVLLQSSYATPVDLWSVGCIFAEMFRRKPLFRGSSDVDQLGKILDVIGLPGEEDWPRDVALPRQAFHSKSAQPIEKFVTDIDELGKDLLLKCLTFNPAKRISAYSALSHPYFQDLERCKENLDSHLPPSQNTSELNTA
# T32 sequence (P06493 whole entry): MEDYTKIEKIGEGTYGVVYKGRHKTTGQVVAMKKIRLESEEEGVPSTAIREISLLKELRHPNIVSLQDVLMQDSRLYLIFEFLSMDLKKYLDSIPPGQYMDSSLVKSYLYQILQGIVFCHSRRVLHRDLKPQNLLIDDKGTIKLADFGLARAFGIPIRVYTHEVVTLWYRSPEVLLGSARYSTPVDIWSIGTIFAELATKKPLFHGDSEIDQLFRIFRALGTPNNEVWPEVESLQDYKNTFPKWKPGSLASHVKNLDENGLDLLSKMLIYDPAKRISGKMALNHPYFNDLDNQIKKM
# T25 sequence (Q9H2G2 whole entry): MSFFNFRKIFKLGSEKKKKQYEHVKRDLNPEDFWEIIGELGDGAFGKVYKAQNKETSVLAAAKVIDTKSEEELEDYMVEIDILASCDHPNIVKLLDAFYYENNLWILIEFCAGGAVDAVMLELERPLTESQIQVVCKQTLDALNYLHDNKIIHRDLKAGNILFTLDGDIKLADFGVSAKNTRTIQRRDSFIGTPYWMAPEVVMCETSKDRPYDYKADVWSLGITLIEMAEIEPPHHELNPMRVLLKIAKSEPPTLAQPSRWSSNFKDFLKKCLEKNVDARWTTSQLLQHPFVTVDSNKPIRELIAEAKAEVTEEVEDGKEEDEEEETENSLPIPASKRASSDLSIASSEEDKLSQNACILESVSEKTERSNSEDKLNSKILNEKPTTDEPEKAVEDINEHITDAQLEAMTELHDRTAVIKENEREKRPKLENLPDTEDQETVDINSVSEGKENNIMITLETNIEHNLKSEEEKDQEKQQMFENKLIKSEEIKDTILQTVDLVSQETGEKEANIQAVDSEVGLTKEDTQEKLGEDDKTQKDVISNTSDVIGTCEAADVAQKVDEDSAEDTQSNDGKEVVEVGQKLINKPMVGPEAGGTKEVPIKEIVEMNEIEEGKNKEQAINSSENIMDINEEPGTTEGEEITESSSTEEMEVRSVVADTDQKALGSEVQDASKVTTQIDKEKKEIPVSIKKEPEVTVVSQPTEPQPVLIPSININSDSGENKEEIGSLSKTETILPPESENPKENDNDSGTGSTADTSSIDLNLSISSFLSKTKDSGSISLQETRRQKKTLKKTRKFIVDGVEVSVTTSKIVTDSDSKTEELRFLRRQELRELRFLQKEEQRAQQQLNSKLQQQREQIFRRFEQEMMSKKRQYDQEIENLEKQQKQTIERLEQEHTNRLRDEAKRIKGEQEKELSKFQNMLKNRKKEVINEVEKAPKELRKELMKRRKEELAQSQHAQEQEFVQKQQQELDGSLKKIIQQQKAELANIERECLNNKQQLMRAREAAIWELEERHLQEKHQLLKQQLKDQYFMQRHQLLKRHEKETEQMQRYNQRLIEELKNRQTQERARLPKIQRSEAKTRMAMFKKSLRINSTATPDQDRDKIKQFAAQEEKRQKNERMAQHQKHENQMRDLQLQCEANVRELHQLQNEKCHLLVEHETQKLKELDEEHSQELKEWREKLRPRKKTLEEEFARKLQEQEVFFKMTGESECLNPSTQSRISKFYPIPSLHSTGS
# T31 sequence (Q14289 whole entry): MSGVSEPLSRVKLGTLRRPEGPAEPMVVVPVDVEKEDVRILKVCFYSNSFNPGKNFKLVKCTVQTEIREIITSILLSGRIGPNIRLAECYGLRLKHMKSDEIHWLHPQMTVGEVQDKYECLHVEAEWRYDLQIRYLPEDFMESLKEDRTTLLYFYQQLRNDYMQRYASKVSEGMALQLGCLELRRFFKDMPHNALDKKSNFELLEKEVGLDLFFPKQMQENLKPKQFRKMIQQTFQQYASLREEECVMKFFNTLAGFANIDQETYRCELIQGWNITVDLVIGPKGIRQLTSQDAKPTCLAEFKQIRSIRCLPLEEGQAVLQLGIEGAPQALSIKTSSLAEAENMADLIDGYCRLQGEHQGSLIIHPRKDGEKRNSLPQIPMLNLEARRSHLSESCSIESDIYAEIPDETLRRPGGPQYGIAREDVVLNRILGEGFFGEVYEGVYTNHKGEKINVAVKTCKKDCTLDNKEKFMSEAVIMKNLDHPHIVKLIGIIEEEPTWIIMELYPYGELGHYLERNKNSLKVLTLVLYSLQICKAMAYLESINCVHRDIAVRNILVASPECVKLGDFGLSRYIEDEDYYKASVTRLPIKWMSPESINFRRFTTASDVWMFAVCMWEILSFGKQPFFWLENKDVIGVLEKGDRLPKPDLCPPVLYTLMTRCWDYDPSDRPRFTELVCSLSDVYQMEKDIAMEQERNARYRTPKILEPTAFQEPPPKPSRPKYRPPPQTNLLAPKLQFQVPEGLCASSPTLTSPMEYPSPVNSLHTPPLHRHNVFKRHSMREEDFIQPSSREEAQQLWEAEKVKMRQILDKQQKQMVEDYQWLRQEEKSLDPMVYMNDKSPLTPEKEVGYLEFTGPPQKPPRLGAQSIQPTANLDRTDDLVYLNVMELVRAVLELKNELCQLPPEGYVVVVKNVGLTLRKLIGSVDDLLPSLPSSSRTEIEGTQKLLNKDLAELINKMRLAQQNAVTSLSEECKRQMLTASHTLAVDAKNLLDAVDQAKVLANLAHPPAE
# T10 sequence (Q96GX5 whole entry): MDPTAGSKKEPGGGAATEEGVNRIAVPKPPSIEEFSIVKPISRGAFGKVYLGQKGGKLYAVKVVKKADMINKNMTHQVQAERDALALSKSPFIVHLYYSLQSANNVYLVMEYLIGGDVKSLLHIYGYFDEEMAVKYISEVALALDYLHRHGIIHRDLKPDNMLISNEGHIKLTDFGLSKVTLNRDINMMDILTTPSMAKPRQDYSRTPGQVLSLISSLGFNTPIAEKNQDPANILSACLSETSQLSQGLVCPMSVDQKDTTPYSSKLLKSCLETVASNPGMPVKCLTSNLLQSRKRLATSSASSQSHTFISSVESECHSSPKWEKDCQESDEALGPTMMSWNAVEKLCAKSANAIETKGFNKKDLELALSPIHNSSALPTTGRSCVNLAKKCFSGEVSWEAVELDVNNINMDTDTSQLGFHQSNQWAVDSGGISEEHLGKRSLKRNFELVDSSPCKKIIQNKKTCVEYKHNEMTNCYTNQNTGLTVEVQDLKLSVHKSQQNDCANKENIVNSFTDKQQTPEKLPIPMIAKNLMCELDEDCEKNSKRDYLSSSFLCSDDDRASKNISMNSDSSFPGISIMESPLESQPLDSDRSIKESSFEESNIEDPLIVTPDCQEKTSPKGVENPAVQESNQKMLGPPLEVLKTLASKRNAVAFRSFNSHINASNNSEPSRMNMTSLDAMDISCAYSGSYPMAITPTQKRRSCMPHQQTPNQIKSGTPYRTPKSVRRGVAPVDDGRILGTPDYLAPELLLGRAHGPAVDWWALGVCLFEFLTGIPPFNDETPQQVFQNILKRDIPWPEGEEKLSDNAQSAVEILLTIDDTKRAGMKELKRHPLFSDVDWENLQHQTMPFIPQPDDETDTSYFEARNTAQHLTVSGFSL
# T27 sequence (P34947 whole entry): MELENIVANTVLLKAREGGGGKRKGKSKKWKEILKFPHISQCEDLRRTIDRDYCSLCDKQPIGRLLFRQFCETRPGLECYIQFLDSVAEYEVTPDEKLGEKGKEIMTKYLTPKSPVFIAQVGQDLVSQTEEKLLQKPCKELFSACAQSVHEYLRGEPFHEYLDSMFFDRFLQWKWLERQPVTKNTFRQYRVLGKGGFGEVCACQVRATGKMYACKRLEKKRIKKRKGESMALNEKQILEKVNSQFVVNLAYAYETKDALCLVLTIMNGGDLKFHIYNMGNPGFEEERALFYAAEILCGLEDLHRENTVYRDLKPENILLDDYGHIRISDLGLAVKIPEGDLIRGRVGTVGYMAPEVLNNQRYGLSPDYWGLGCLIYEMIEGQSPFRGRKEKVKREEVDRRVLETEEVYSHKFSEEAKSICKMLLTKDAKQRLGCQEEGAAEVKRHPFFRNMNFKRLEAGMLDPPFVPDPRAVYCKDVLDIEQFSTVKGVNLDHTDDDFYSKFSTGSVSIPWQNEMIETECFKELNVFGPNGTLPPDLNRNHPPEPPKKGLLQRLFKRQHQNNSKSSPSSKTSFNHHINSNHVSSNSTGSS
# T28 sequence (Q14012 whole entry): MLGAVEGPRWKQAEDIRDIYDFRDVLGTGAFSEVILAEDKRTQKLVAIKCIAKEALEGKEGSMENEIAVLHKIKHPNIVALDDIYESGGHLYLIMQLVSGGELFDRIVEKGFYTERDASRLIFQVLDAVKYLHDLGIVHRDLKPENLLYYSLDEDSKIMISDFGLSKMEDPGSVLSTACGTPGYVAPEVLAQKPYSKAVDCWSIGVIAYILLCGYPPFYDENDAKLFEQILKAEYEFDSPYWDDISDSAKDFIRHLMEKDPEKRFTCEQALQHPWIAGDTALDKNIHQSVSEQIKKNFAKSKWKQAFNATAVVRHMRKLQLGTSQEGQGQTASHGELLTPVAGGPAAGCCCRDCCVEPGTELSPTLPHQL
smiles,measurement,setting,value
"O=C(O)c1cc(C(F)(F)F)ccc1NCCc1c[nH]c2cc(Br)ccc12 [Compound 5, 2-((2-(6-Bromo-1H-indol-3-yl)ethyl)amino)−5-(trifluoromethyl)benzoic Acid]",activity at 10 µM,[1],74.8 ± 2.2%
same,activity at 10 µM,[2],101.3 ± 0.5%
same,activity at 10 µM,[3]; CDK6/CYCLIN D1,87.9 ± 0.1%
same,activity at 10 µM,[3]; CDK6/CYCLIN D2,44.6 ± 0.5%
same,activity at 10 µM,[3]; CDK6/CYCLIN D3,60.9 ± 1.2%
same,activity at 10 µM,[4],100.2 ± 0.6%
same,activity at 10 µM,[5],54.7 ± 2.7%
same,activity at 10 µM,[6],94 ± 0.9%
same,activity at 10 µM,[7],87.7 ± 0.4%
same,activity at 10 µM,[8],97.8 ± 0.3%
same,activity at 10 µM,[9],102 ± 3.7%
same,activity at 10 µM,[10],101.7 ± 0.2%
same,activity at 10 µM,[11],99 ± 0.1%
same,activity at 10 µM,[12],85.4 ± 0.7%
same,activity at 10 µM,[13],74.5 ± 3.3%
same,activity at 10 µM,[14],79.2 ± 1.5%
same,activity at 10 µM,[15],105 ± 1.1%
same,activity at 10 µM,[16],85 ± 0.7%
same,activity at 10 µM,[17],69.3 ± 1%
same,activity at 10 µM,[18],94.4 ± 0.5%
same,activity at 10 µM,[19],109 ± 2.6%
same,activity at 10 µM,[20],110.4 ± 0.1%
same,activity at 10 µM,[21],93.4 ± 0.2%
same,activity at 10 µM,[22],74.4%
same,activity at 10 µM,[23],81.4 ± 4.1%
same,activity at 10 µM,[24],89.9 ± 1.4%
same,activity at 10 µM,[25],89.7 ± 3%
same,activity at 10 µM,[26],80.9 ± 2.2%
same,activity at 10 µM,[27],101 ± 1.1%
same,activity at 10 µM,[28],69.1 ± 1%
same,activity at 10 µM,[29],83.5 ± 1.1%
same,activity at 10 µM,[30],110.3 ± 0.7%
same,activity at 10 µM,[31],75.6 ± 1.9%
same,activity at 10 µM,[32]; CDK1/CYCLIN E,60.2 ± 0.3%
same,activity at 10 µM,[32]; CDK1/cyclin A,95.4 ± 0.8%
same,activity at 10 µM,[33],84.2 ± 0.1%
same,activity at 10 µM,[34],90.8 ± 1.1%
same,activity at 10 µM,[35],67.9 ± 1.8%
same,activity at 10 µM,[36],40.6 ± 3.2%
